29 compounds from PubChem BioAssay AID179 (DTP/NCI, 2004) can be followed below.

Active and inactive are the calls of the source.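 Rule for the calls: active = compounds giving half or more protection of infected cells from virus-caused growth loss, again on retest; inactive = the rest.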

The subject of the assay is CEM cells HIV-1 protection, formazan growth assay. The assay is described as follows: NCI AIDS Antiviral Assay. Particulars: for IC50: measured here: growth of uninfected CEM cells. In outline: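 Five concentrations of each compound were applied to infected and uninfected human CEM cells. Protection from HIV-1 was judged from growth measured with a soluble formazan assay.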

For the compound `CCN(CC)C(=O)COc1cc2c(O)c3c(O)c(C)c4c(c13)C(=O)C(C)(O/C=C/C(OC)C(C)C(O)C(C)C(O)C(C)C(O)C(C)/C=C/C=C(\C)C(=O)N2)O4` (stereo unspecified), the EC50 (usually the concentration at which the effect is half-maximal) was over 200 µM and the IC50 (commonly the concentration at which inhibition is half-maximal) was 29.5 µM.

In the case of `O=c1[nH]c2ccccc2c(=O)n1/N=C/c1ccc(Cl)cc1`, the EC50 was over 200 µM and the IC50 is over 200 µM.

With `CCOC(=O)Cn1c(=O)cc(C)c2ccccc21`, the EC50 is over 200 µM and the IC50 is over 200 µM.

As for `Cc1ccccc1C(C#N)C(=O)C(=O)Nc1cccc(Cl)c1` (stereo unspecified), the EC50 is over 417 µM and the IC50 was over 417 µM.

`CCN(CC)CCOC(=O)c1ccc(N)cc1`: the EC50 is over 200 µM and the IC50 is over 200 µM.

For `CCN1C(NN)=NS(=O)(=O)c2ccccc21`, the EC50 was over 200 µM and the IC50 was over 200 µM.

`Clc1ccc(C(c2ccccc2Cl)C(Cl)Cl)cc1` (stereo unspecified): the EC50 is over 200 µM and the IC50 was determined as 61.7 µM.

Turning to `COC1O[C@@H]2CCN3C(=O)[C@@H](OC(=O)c4ccc([N+](=O)[O-])cc4)[C@H]1C23` (stereo partly specified), the EC50 is over 200 µM and the IC50 was over 200 µM.

On to `CC(=O)NC1(NC(C)=O)C2CC(C1Cc1ccccc1)C(C)(C)C2C` (stereo unspecified), for which the EC50 was over 724 µM and the IC50 was over 724 µM.

With `S=C1CC(c2ccccc2)Sc2cc(Cl)ccc2N1` (stereo unspecified), the EC50 is over 200 µM and the IC50 was found to be 1.26 µM.

`COc1cc(OC)c2nc3occc3c(OC)c2c1`: the EC50 was over 363 µM and the IC50 worked out at 58.9 µM.

Consider `CC(=O)N/N=C1\NN(C(C)=O)C2(S1)C(=O)Nc1ccccc12` (stereo unspecified), for which the EC50 was over 200 µM and the IC50 was over 200 µM.

In the case of `S=C1CC(c2ccccc2)Sc2ccc(Cl)cc2N1` (stereo unspecified), the EC50 was over 200 µM and the IC50 was 34.7 µM.

For `CC(CC1c2ccccc2CCc2ccccc21)CN(C)C` (stereo unspecified), the EC50 was over 200 µM and the IC50 was 33.1 µM.

Take `CC1(C)C2CCC(CN)(C2)C1O` (stereo unspecified): the EC50 was over 200 µM and the IC50 is over 200 µM.

As for `CN(C)c1ccc(/C=C(\NC(=O)c2ccccc2)c2nc3ncncc3[nH]2)cc1`, the outcome was inactive.

Regarding `O=C1[C@@H]2C(c3ccccc3[N+](=O)[O-])=NO[C@@H]2C(=O)N1c1ccc(Cc2ccc(N3C(=O)[C@H]4C(c5ccccc5[N+](=O)[O-])=NO[C@H]4C3=O)cc2)cc1`, the EC50 was over 20 µM and the IC50 was over 20 µM.

For `O=C(O)C1(Cc2ccccc2)Cc2cc3c(cc2C1)CCC3`, the EC50 is over 200 µM and the IC50 was determined as 93.3 µM.

As to `COC(=O)c1nc(N)nc(C(=O)OC)c1C(=O)/C=C/c1ccccc1`, the EC50 was over 741 µM and the IC50 was 324 µM.

Regarding `CCCCCCCCCCCCC(N=[N+]=[N-])C(=O)OCC1OC(n2cc(C)c(=O)[nH]c2=O)CC1O` (stereo unspecified), the EC50 was over 20.4 µM and the IC50 was over 20.4 µM.

Regarding `CN=C1OC2(c3ccccc3)C3=C(OC(=NC)N2C)C(=O)OC3(c2ccccc2)N1C` (stereo unspecified), the EC50 was over 200 µM and the IC50 is 148 µM.

Take `COC(=O)C12c3ccccc3C(c3ccccc31)c1c(N=O)ccc(NO)c12`: the EC50 is over 19.5 µM and the IC50 was over 19.5 µM.

As for `Cn1cnc([N+](=O)[O-])c1Sc1nnc(-c2ccc(Cl)cc2)n1C`, the EC50 was over 372 µM and the IC50 turned out to be 3.02 µM.

For `CC(=O)c1ccc(NCc2cc(O)ccc2O)cc1`, the EC50 was over 200 µM and the IC50 worked out at 10.7 µM.

Turning to `O=C(O)c1cc(O)c2c(c1)Cc1cccc(O)c1C2=O`, the EC50 is over 200 µM and the IC50 was 28.8 µM.

Turning to `Cc1ccc(C2=C/C(=C/c3ccc(N(CCC#N)CCC#N)cc3)C(=O)O2)cc1C`, the EC50 is over 13.2 µM and the IC50 was over 13.2 µM.

Consider `COCCN(C(C)=O)C1CCC2(SCCS2)c2[nH]c3ccccc3c21` (stereo unspecified), for which the EC50 is over 200 µM and the IC50 is over 200 µM.

As for `NCC(O)c1cc(I)c(Oc2ccc(O)cc2)c(I)c1` (stereo unspecified), the EC50 is over 200 µM and the IC50 amounted to 15.5 µM.

Turning to `c1ccc2c(c1)nc1n2CSC1`, the outcome was inactive.
